This is an account of results in ChEMBL document CHEMBL1933021, “Novel and selective spiroindoline-based inhibitors of Sky kinase” (Bioorg Med Chem Lett, 2012).

Structures are written as SMILES. Converted amounts (≈) assume the structure as drawn. The source made the active and inactive calls. No cut-off for these calls is given here.

One data set concerns Tyro3 (Mus musculus). Put plainly: Inhibition of mouse Sky kinase assessed as inhibition of src substrate phosphorylation by ELISA. (ELISA stands for enzyme-linked immunosorbent assay.)
A short description of data set [1]: Half life in po dosed Sprague-Dawley rat. Format: ADME, organism-based. The settings on record: in vivo.
Data set [2] in a line: Clearance in po dosed Sprague-Dawley rat. The data set is classed as ADME, organism-based. As to conditions: in vivo.
The target in a further data set is Cytochrome P450 2D6 (Homo sapiens, UniProt P10635). As to the kind of experiment: Inhibition of CYP2D6 using dextromethorphan as substrate. The data set is classed as ADME.
Sequence of Cytochrome P450 2D6 (P10635 whole entry, the tested form may be a part): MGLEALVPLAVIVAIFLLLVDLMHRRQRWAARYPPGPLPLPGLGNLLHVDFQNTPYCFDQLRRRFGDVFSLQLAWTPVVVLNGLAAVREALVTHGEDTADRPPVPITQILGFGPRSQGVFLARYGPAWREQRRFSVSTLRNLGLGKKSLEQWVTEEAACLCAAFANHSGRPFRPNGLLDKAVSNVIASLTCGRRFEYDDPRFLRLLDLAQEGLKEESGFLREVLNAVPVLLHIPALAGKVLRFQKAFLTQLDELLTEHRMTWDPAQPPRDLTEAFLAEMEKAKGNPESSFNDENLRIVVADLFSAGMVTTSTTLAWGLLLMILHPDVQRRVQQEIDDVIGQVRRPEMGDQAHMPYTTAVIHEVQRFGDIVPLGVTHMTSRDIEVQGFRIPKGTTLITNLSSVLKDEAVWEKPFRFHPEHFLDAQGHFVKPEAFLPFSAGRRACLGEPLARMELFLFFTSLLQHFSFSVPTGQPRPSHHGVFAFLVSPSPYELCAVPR
Data set [3] in a line: Permeability of the compound by PAMPA assay. The settings on record: read-out: permeability. Format: ADME. Background: The PAMPA barrier holds no transporters, so it reflects passive diffusion.
The nature of data set [4]: Aqueous solubility of compound at pH 6.5. Format: physicochemical.
The nature of data set [5]: Oral bioavailability in Sprague-Dawley rat. As to conditions: in vivo. The data set is classed as ADME, organism-based.
Data set [6] in a line: Half life in human liver microsomes. The data set is classed as ADME, Microsome. In general terms: Microsomes from liver hold many membrane-bound enzymes, among them those of drug oxidation.
For a further data set, the system named is Rattus norvegicus. As to the kind of experiment: Volume of distribution at steady state in po dosed Sprague-Dawley rat. The data set is classed as ADME, organism-based. As to conditions: in vivo.

`COc1ccc2[nH]c(C(=O)N3C[C@@]4(CCN(C5CCNC5)C4)c4ccccc43)cc2c1` (stereo partly specified): the inhibition result with Tyro3 (Mus musculus) was “Active”.
On to `CCN1CCCC(N2CC[C@@]3(CN(C(=O)c4cc5cc(F)ccc5[nH]4)c4ccccc43)C2)C1` (stereo partly specified), for which the inhibition entry in the data set with Tyro3 (Mus musculus) was “Active”.
With `O=C(c1cc2cc(Cl)ccc2[nH]1)N1C[C@@]2(CCN(C3CCCNC3)C2)c2ccccc21` (stereo partly specified), the inhibition result in the data set with Tyro3 (Mus musculus) is “Active”.
In the case of `COc1ccc2cc(C(=O)N3C[C@@]4(CCN(C5CCNC5)C4)c4ccccc43)[nH]c2c1` (stereo partly specified), the inhibition result with Tyro3 (Mus musculus) is “Active”.
As to `O=C(c1cc2c(Cl)cccc2[nH]1)N1C[C@@]2(CCN(C3CCNC3)C2)c2ccccc21` (stereo partly specified), the inhibition entry with Tyro3 (Mus musculus) was “Active”.
Turning to `O=C(c1cc2cc(F)ccc2[nH]1)N1C[C@@]2(CCN(C3CNC3)C2)c2ccccc21`, the inhibition entry with Tyro3 (Mus musculus) is “Active”.
Still for that read-out and setting: next, `O=C(c1cc2cc(F)ccc2[nH]1)N1C[C@@]2(CCN(C3CCCCC3)C2)c2ccccc21`: “Active”.
For `O=C(c1cc2cc(Cl)ccc2[nH]1)N1C[C@]2(CCN(C3CCNC3)C2)c2ccccc21` (stereo partly specified), the half-life in [1] was 3.1 h; in [6] it was 1 h. The apparent clearance (CL/F) in data set [2] came to 60 mL/min/kg. On Cytochrome P450 2D6, this molecule yielded an IC50 of 14 nM. Besides, the Papp in data set [3] was found to be 0.03 ×10⁻⁶ cm/s. Besides, the concentration in solution in data set [4] (solubility) came to 5.2 µM (≈ 2.19 µg/mL). The bioavailability in data set [5] was found to be 14%. In the data set on Rattus norvegicus, this molecule gave a Vdss of 13 L/kg.
Regarding `O=C(c1cc2cc(F)ccc2[nH]1)N1C[C@@]2(CCN(CC3CCCNC3)C2)c2ccccc21` (stereo partly specified), the inhibition entry with Tyro3 (Mus musculus) was “Active”.
Consider `O=C(c1cc2cc(Cl)ccc2[nH]1)N1C[C@@]2(CCN(C3CCNCC3)C2)c2ccccc21`, for which, in the data set on Tyro3 (Mus musculus), the inhibition entry is “Active”.
For the molecule `NC(=O)c1ccc2cc(C(=O)N3C[C@@]4(CCN(C5CCNC5)C4)c4ccccc43)[nH]c2c1` (stereo partly specified), in the data set on Tyro3 (Mus musculus), the inhibition entry was “Active”.
For the molecule `Cc1ccc(N2CC[C@]3(C2)CN(C(=O)c2cc4cc(F)ccc4[nH]2)c2ccccc23)cn1`, the inhibition entry in the data set on Tyro3 (Mus musculus) was “Active”.
In the case of `O=C(c1cc2cc(Cl)ccc2[nH]1)N1C[C@@]2(CCN(C3CCNC3)C2)c2ccccc21` (stereo partly specified), the inhibition result in the data set with Tyro3 (Mus musculus) was “Active”.
For `Cc1ccc2[nH]c(C(=O)N3C[C@@]4(CCN(C5CCNC5)C4)c4ccccc43)cc2c1` (stereo partly specified), in the data set with Tyro3 (Mus musculus), the inhibition result is “Active”.

In general, half-life refers to the time in which the quantity being followed falls by half. A higher half-life goes with slow loss. As a reminder, the CL/F is clearance divided by bioavailability, as obtained after extravascular dosing. One may read the IC50 as the midpoint of a concentration-inhibition curve. The term solubility denotes the concentration that dissolves in the medium under given conditions. The low end stands for a poorly soluble substance, the high end for a readily soluble substance. In general, bioavailability refers to dose-corrected exposure relative to a reference, in per cent.
